Test results reported in ChEMBL document CHEMBL3046848, “Synthesis and biological evaluation of novel series of thieno[2,3-d]pyrimidine derivatives as anticancer and antimicrobial agents” (2013).

Experiments:
Format in all cases: functional
SK-MEL-5 = assay: Anticancer activity against Homo sapiens (human) SK-MEL-5 cells after 48 hr by SRB assay; details: SK-MEL-5, 48 h
Malme-3M = assay: Anticancer activity against Homo sapiens (human) MALME-3M cells after 48 hr by SRB assay
SNB-75 [1] = assay: Anticancer activity against Homo sapiens (human) SNB75 cells after 48 hr by SRB assay; details: SNB-75, 48 h
SNB-19 = assay: Anticancer activity against Homo sapiens (human) SNB19 cells after 48 hr by SRB assay; details: SNB-19, 48 h
SW-620 = assay: Anticancer activity against Homo sapiens (human) SW620 cells after 48 hr by SRB assay; details: SW-620, 48 h
RXF 393 = assay: Growth inhibition of Homo sapiens (human) RXF393 cells at 10 uM after 48 hr by SRB assay; details: RXF 393, 48 h, read-out: GI
ACHN [2] = assay: Growth inhibition of Homo sapiens (human) ACHN cells at 10 uM after 48 hr by SRB assay; details: read-out: GI
A498 = assay: Growth inhibition of Homo sapiens (human) A498 cells at 10 uM after 48 hr by SRB assay; details: A498, 48 h, read-out: GI
NCI/ADR-RES = assay: Growth inhibition of Homo sapiens (human) NCI/ADR-RES cells at 10 uM after 48 hr by SRB assay; details: read-out: GI
MDA-MB-231 = assay: Growth inhibition of Homo sapiens (human) MDA-MB-231/ATCC cells at 10 uM after 48 hr by SRB assay; details: MDA-MB-231, 48 h, read-out: GI
Pseudomonas aeruginosa = assay: Antimicrobial activity against Pseudomonas aeruginosa ATCC9027 assessed as diameter of growth inhibition zone at 1 mg/ml after 24 hr by agar cup diffusion method; details: ATCC9027, 24 h, read-out: IZ
T47D = assay: Anticancer activity against Homo sapiens (human) T47D cells after 48 hr by SRB assay
UO-31 [3] = assay: Anticancer activity against Homo sapiens (human) UO31 cells after 48 hr by SRB assay; details: UO-31, 48 h
HCT-116 [4] = assay: Growth inhibition of Homo sapiens (human) HCT116 cells at 10 uM after 48 hr by SRB assay; details: HCT-116, 48 h, read-out: GI
HCC 2998 = assay: Growth inhibition of Homo sapiens (human) HCC2998 cells at 10 uM after 48 hr by SRB assay; details: HCC 2998, 48 h, read-out: GI
NCI-H23 = assay: Growth inhibition of Homo sapiens (human) NCI-H23 cells at 10 uM after 48 hr by SRB assay; details: NCI-H23, 48 h, read-out: GI
KM12 = assay: Anticancer activity against Homo sapiens (human) KM12 cells after 48 hr by SRB assay; details: KM12, 48 h
HCT-116 [5] = assay: Anticancer activity against Homo sapiens (human) HCT116 cells after 48 hr by SRB assay; details: HCT-116, 48 h
COLO 205 = assay: Anticancer activity against Homo sapiens (human) COLO205 cells after 48 hr by SRB assay; details: COLO 205, 48 h
NCI-H460 = assay: Anticancer activity against Homo sapiens (human) NCI-H460 cells after 48 hr by SRB assay; details: NCI-H460, 48 h
RPMI-8226 = assay: Anticancer activity against Homo sapiens (human) RPMI8226 cells after 48 hr by SRB assay; details: RPMI-8226, 48 h
HL-60(TB) = assay: Anticancer activity against Homo sapiens (human) HL-60(TB) cells after 48 hr by SRB assay; details: HL-60, 48 h
CCRF-CEM = assay: Anticancer activity against Homo sapiens (human) CCRF-CEM cells after 48 hr by SRB assay
SNB-75 [6] = assay: Growth inhibition of Homo sapiens (human) SNB75 cells at 10 uM after 48 hr by SRB assay; details: SNB-75, 48 h, read-out: GI
ACHN [7] = assay: Anticancer activity against Homo sapiens (human) ACHN cells after 48 hr by SRB assay
SK-OV-3 = assay: Anticancer activity against Homo sapiens (human) SKOV3 cells after 48 hr by SRB assay; details: SK-OV-3, 48 h
OVCAR-5 = assay: Anticancer activity against Homo sapiens (human) OVCAR5 cells after 48 hr by SRB assay; details: OVCAR-5, 48 h
SF-268 = assay: Growth inhibition of Homo sapiens (human) SF268 cells at 10 uM after 48 hr by SRB assay; details: SF-268, 48 h, read-out: GI
PC-3 = assay: Growth inhibition of Homo sapiens (human) PC3 cells at 10 uM after 48 hr by SRB assay; details: PC-3, 48 h, read-out: GI
DU-145 = assay: Growth inhibition of Homo sapiens (human) DU145 cells at 10 uM after 48 hr by SRB assay; details: DU-145, 48 h, read-out: GI
UO-31 [8] = assay: Growth inhibition of Homo sapiens (human) UO31 cells at 10 uM after 48 hr by SRB assay; details: UO-31, 48 h, read-out: GI
LOX IMVI = assay: Growth inhibition of Homo sapiens (human) LOXIMVI cells at 10 uM after 48 hr by SRB assay; details: read-out: GI
SN12C = assay: Growth inhibition of Homo sapiens (human) SN12C cells at 10 uM after 48 hr by SRB assay; details: read-out: GI
TK-10 = assay: Growth inhibition of Homo sapiens (human) TK10 cells at 10 uM after 48 hr by SRB assay; details: TK-10, 48 h, read-out: GI
[9] = read-out: LC50 (the source's name)

Cc1c(C(N)=O)sc2nc(C)n(/N=c3\scc(-c4ccccc4)n3Cc3ccccc3)c(=O)c12
GI50 (SK-MEL-5): 1.81 µM
TGI (SK-MEL-5): 3.75 µM
CC50 (SK-MEL-5; [9]): 7.75 µM
GI50 (Malme-3M): 2.18 µM
TGI (Malme-3M): > 100 µM
CC50 (Malme-3M; [9]): > 100 µM
GI50 (SNB-75 [1]): 2.8 µM
TGI (SNB-75 [1]): > 100 µM
CC50 (SNB-75 [1]; [9]): > 100 µM
GI50 (SNB-19): 4.8 µM
TGI (SNB-19): > 100 µM
CC50 (SNB-19; [9]): > 100 µM
GI50 (SW-620): 3.16 µM
TGI (SW-620): > 100 µM
CC50 (SW-620; [9]): > 100 µM
inhibition of growth at 10 µM (RXF 393): 105%
inhibition of growth at 10 µM (ACHN [2]): 92.7%
inhibition of growth at 10 µM (A498): 99.3%
inhibition of growth at 10 µM (NCI/ADR-RES): 81.1%
inhibition of growth at 10 µM (MDA-MB-231): 57%
zone of inhibition at 1000 µg/mL (Pseudomonas aeruginosa): 17 mm
GI50 (T47D): 3.25 µM
TGI (T47D): > 100 µM
CC50 (T47D; [9]): > 100 µM
GI50 (UO-31 [3]): 1.66 µM
TGI (UO-31 [3]): 7 µM
CC50 (UO-31 [3]; [9]): > 100 µM
inhibition of growth at 10 µM (HCT-116 [4]): 70.9%
inhibition of growth at 10 µM (HCC 2998): 42.9%
inhibition of growth at 10 µM (NCI-H23): 79.5%
GI50 (KM12): 3.37 µM
TGI (KM12): > 100 µM
CC50 (KM12; [9]): > 100 µM
GI50 (HCT-116 [5]): 2.13 µM
TGI (HCT-116 [5]): 10 µM
CC50 (HCT-116 [5]; [9]): > 100 µM
GI50 (COLO 205): 2.39 µM
TGI (COLO 205): 7.32 µM
CC50 (COLO 205; [9]): > 100 µM
GI50 (NCI-H460): 2.65 µM
TGI (NCI-H460): 7.34 µM
CC50 (NCI-H460; [9]): > 100 µM
GI50 (RPMI-8226): 13.9 µM
TGI (RPMI-8226): > 100 µM
CC50 (RPMI-8226; [9]): > 100 µM
GI50 (HL-60(TB)): 6.68 µM
TGI (HL-60(TB)): > 100 µM
CC50 (HL-60(TB); [9]): > 100 µM
GI50 (CCRF-CEM): 34.2 µM
TGI (CCRF-CEM): > 100 µM
CC50 (CCRF-CEM; [9]): > 100 µM
inhibition of growth at 10 µM (SNB-75 [6]): 45.2%
GI50 (ACHN [7]): 2.86 µM
TGI (ACHN [7]): > 100 µM
CC50 (ACHN [7]; [9]): > 100 µM
GI50 (SK-OV-3): 4.5 µM
TGI (SK-OV-3): > 100 µM
CC50 (SK-OV-3; [9]): > 100 µM
GI50 (OVCAR-5): 4.33 µM
TGI (OVCAR-5): > 100 µM
CC50 (OVCAR-5; [9]): > 100 µM
inhibition of growth at 10 µM (SF-268): 78.7%
inhibition of growth at 10 µM (PC-3): 98%
inhibition of growth at 10 µM (DU-145): 57.9%
inhibition of growth at 10 µM (UO-31 [8]): 95.9%
inhibition of growth at 10 µM (LOX IMVI): 79.4%
inhibition of growth at 10 µM (SN12C): 52.3%
inhibition of growth at 10 µM (TK-10): 47.2%
